Marks after values point to notes of the source that are not given here.
What was measured:
[1] = tested on: DSS-induced inflammation of the lower colon; test: Dextran sodium sulfate (DSS) mouse model of IBD; assay type: in vivo; details: DSS mice; for Fecal Blood Score: scale 0-3
Description: In this example, β-gluc-1,25-D3 compounds, alone or in combination with 25-β-glucuronide-25-hydroxyvitamin D3 compounds (hereinafter β-gluc-25-D3) were incorporated into the diet of mice and compared to equimolar 1,25-D3 with respect to therapeutic effects on IBD and induction of calcemia. A standard mouse model of IBD comprising administering dextran sodium sulfate (DSS) to induce inflammation of the lower colon was used to study these effects. Vitamin D treatments were first initiated for 4 days. After 4 days, mice were fed DSS-water for 7 days, allowed one day to recover, and sacrificed. Colon length, plasma calcium, fecal blood score, and body weight were assayed. Colon length is a standard marker of intestinal inflammation in the literature, with shortened colon length being an indicator of inflammation. A 1-cm section of the mid-colon was removed, fixed in formalin, and stained with hematoxylin & eosin for microscopic histopathologic evaluation by a veterinary pathologist blinded to the treatments. Each tissue section received a score from 0 to 4 reflecting absence of lesion to severe, extensive lesion for each of three criteria: (1) the degree of erosion/ulceration of colon mucosa; (2) the degree of infiltration of the tissues by inflammatory cells; and (3) the degree of submucosal edema. The sum of the score of each of these criteria constitutes the histopathological score for the tissue with a zero score representing normal tissue based on all criteria, and the worst possible outcome being a score of 12.

4T1 tumor cells = test: 4T1 mammary tumor growth in BALB/c mice; assay type: in vivo; details: 280 ng/day s.c. daily, eight days
Procedure: 4T1 tumor cells, originally isolated from a BALB/cfC3H mouse mammary gland, were obtained from American Tissue Culture Collection (Manassas, Va.). The tumor growth and metastatic spread of 4T1 cells in BALB/c mice very closely mimic human breast cancer. This syngeneic tumor graft is an animal model for stage 1V human breast cancer (Pulaski et al. Cancer Res. 1998, 58:1486-1493). The cells were grown in RPMI-1640 media supplemented with 10% fetal bovine serum. When cell growth reached about 70% confluency, the cells were lifted from the flasks with standard removing medium and rinsed with 0.25% trypsin, 0.53-mM EDTA solution (trypsin-EDTA solution). This solution was removed and an additional 1 to 2 ml of trypsin-EDTA solution was added. The flask was allowed to sit at 37.0° C. until the cells detached. Fresh culture medium was added, and the cells were aspirated for enumeration using a hemocytometer. RPMI-1640 and Matrigel (BD Biosciences, Bedford, Mass.) solutions were prepared and maintained at 4° C. to keep the Matrigel liquid. […] Sixteen days after implantation of the cells, tumors approximately 0.5-0.7 cm in diameter (as measured with calipers) formed under the skin of many of the mice. […]

[2] = tested on: β-glucuronidase activity, ileum lumen contents; test: β-glucuronidase cleavage in ileum lumen contents, free 1,25-D3 by RIA; assay type: in vitro ADME, rats; details: 2100 pg added
Procedure: (§1) The proximal 25 cm of duodenum/jejunum, the caudal 12 cm of ileum, and the cranial 12 cm of colon were removed. The contents from the lumen of each section were flushed with 3 ml water, collected, and pooled. Three-ml aliquots of intestinal contents were placed into tubes. To the tubes, either 2100 pg (3.53 pmoles) β-gluc-1,25-D3 was added and incubated at 37° C. for 0, 1, 3, or 6 hrs, or 150 pg (0.36 pmoles) of 1,25-D3 was added and incubated for 0 or 6 hrs. […] Acetonitrile (3 ml) was added to each tube after incubation to end all enzymatic activity, after which the 1,25-D3 was extracted. Tritiated 1,25-D3 was added to each tube to assess extraction efficiency. The preparations were cleaned by HPLC, and the samples were analyzed for 1,25-D3 content by RIA (Heartland Assays, Ames, Iowa) (Hollis et al., J. Steroid Biochem. Mol. Biol. 2007 103(3-5):473-6).

[3] = tested on: β-glucuronidase activity, duodenum lumen contents; test: β-glucuronidase cleavage in duodenum lumen contents, free 1,25-D3 by RIA; assay type: in vitro ADME, rats; details: 2100 pg added
Procedure: as §1

Cyp24 = Cyp24 mRNA expression in duodenum of mice after a single oral dose; assay type: in vivo; details: for Cyp24 expression in the duodenum, induction over control mice: 24 pmol per os
Procedure: Mice were decapitated 6 hrs later following light anesthesia under inhaled halothane. […] Tissue samples were flushed with ice-cold phosphate-buffered saline and immediately homogenized in 1 ml of TRIzol® reagent (Invitrogen Corp., Carlsbad, Calif.). Samples were then kept frozen at −86° C. prior to processing for RNA. For processing RNA, each TRIzol® homogenate was thawed at room temperature and 500 μl placed in a clean microfuge tube, mixed thoroughly with 100 μl chloroform for 15 sec and then centrifuged at 12,000×g for 15 min at 4° C. The upper aqueous phase was removed and mixed with 0.93 volumes of 75% EtOH. The mixture was then applied to an RNeasy spin column (Qiagen Inc., Germantown, Md.) and processed as described by the manufacturer with the exception that an additional wash with 2M NaCl/2 mM EDTA (pH 4.0) was included (Das et al. J Vet Diagn Invest. 2009; 21:771-778). RNA was eluted in 50 μl of water and the concentration obtained by UV spectrometry. One microgram of RNA was then used as a template for production of cDNA in a 20-μl reaction volume using random hexamers and Superscript III as described by the manufacturer (Invitrogen, Carlsbad, Calif.). Afterwards, samples were diluted to 100 μl final volume with TE buffer and stored at −20° C. prior to PCR analysis. Quantitative real-time RT-PCR was performed using a Stratagene Mx3005p cycler (Stratagene, La Jolla, Calif.) and PerfeCTa® SYBR® Green FastMix®, ROX reagent (Quanta Biosciences, Gaithersburg, Md.). Amplification of target cDNAs was accomplished with the following primers: Aliquots (8.3 ng) of cDNA were amplified under the following conditions: 95° C. for 30 sec, followed by 45 cycles of 95° C. for 1 sec and 57° C. for 30 sec. […] Oligonucleotides were obtained from Integrated DNA Technologies (Coralville, Iowa).

For `C=C1/C(=C\C=C2/CCC[C@]3(C)[C@@H]([C@H](C)CCCC(C)(C)O[C@@H]4O[C@H](C(=O)O)[C@@H](O)[C@H](O)[C@H]4O)CC[C@@H]23)C[C@@H](O)C[C@@H]1O` [β-gluc-1,25-D3, 25-β-glucuronide-1,25-dihydroxyvitamin D3], the “Histopathology score (0-12)” value ([1]; 14 ng/day) was 6.66 ± 0.53^c, the “Colon Length” value ([1]; 14 ng/day in diet) was 5.78 ± 0.09 cm and the “Final Body Weight” value ([1]; 14 ng/day in diet) was 21.91 ± 0.49 g. The “Fecal Blood Score” value ([1]; 14 ng/day) was 0.55 ± 0.26, the “Histopathology score (0-12)” value ([1]; 70 ng/day) was 6.33 ± 0.74^c and the “Colon Length” value ([1]; 70 ng/day in diet) was 5.41 ± 0.15 cm. The “Final Body Weight” value ([1]; 70 ng/day in diet) was 21.00 ± 0.68 g, the “Fecal Blood Score” value ([1]; 70 ng/day) was 0.22 ± 0.08^c and the “Histopathology score (0-12)” value ([1]; 350 ng/day) was 8.33 ± 0.64. For the same compound, the “Colon Length” value ([1]; 350 ng/day in diet) was 4.72 ± 0.15 cm, the “Final Body Weight” value ([1]; 350 ng/day in diet) was 19.62 ± 0.69 g and the “Fecal Blood Score” value ([1]; 350 ng/day) was 0.88 ± 0.43. The “reducing inflammation” value ([1]; alone at 70 ng/day) was “numerically better than 1,25-D3”, the “tumor weight mean±SEM” value (4T1 tumor cells; BALB/c mice) was 2.01 ± 0.36 g and the “effect on the growth of 4T1 tumor cells” value (4T1 tumor cells; P=0.034) was “significant anti-proliferative effect”. The “Measured Free 1,25-dihydroxy vitamin D” value ([2]; 0 hrs incubation) was 39 pg, the “Measured Free 1,25-dihydroxy vitamin D” value ([2]; 1 hr incubation) was 1323 pg and the “Measured Free 1,25-dihydroxy vitamin D” value ([2]; 3 hrs incubation) was 1127 pg. For the same compound, the “Measured Free 1,25-dihydroxy vitamin D” value ([2]; 6 hrs incubation) was 1342 pg, the “Measured Free 1,25-dihydroxy vitamin D” value ([3]; 0 hrs incubation) was 29 pg and the “Measured Free 1,25-dihydroxy vitamin D” value ([3]; 1 hr incubation) was 38 pg. The “Measured Free 1,25-dihydroxy vitamin D” value ([3]; 3 hrs incubation) was 63 pg, the “Measured Free 1,25-dihydroxy vitamin D” value ([3]; 6 hrs incubation) was 105 pg and the “Cyp24 expression in the duodenum, induction over control mice” value (Cyp24; 3 hours) was 1300 fold. The “Cyp24 expression in the duodenum, induction over control mice” value (Cyp24; 6 hours) was 500 fold and the “induction of Cyp24 in the duodenum versus analogous dose of 1,25-D3” value (Cyp24; 6, 12, 24, 48 pmol per os, 6 hrs) was “consistently less effective than the analogous dose of 1,25-D3”.
